According to patent US8232293B2, “Crystalline forms of a potent HCV inhibitor” (Boehringer Ingelheim International GmbH, priority 2008, dated 2012):
Values after ≈ are worked out from the molar mass of the structure shown. Counter-ions that a name gives are not always drawn. Like-named read-outs stand apart in the source and are kept apart here.

Columns and labels:
[1] = Solubility in non-aqueous excipients (excess solid, HPLC of filtrate); assay type: physicochemical; conditions: room temperature, rotated up to 4 days; for solubility: thermodynamic from solid; for Solubility in Ethanol: excipient Ethanol; for Solubility in Transcutol P: excipient Transcutol P
Experimental: (§1) The solubility of Compound (1), as either Type A or the sodium salt form, was investigated in various non-aqueous solvents. The solutions were prepared by addition of excess Compound (1) to 0.25 ml to 1.0 ml of excipient in amber screw cap vials with Teflon lined caps. The samples were allowed to rotate at room temperature for up to 4 days. Sampling was done by centrifuging (14,000 rpm on the Eppendorf model 5415C table top centrifuge) and filtering through a 0.45 μm PVDF filter. The filtrate was subject to HPLC analysis for determining the solubility. HPLC analysis was conducted with an Agilent 1100 using gradient or isocratic conditions. Both methods used acetonitrile/water (each with 0.1% Trifluroacetic Acid) and an ACE C-18 stationary phase with column heating maintained at 40-45° C. The wavelength of detection was set at 220 nm or 264 nm. Wet solids were collected and analyzed for form change (stability) by XRPD.

[2] = Form change (stability) study of slurried solids by XRPD; assay type: physicochemical; conditions: slurried in either propylene glycol or ethanol, FIG. 5
Experimental: as §1
XRPD analyses for the form change studies were conducted on a Bruker AXS X-Ray Powder Diffractometer Model D8 Discover or D8 Advance, available from Bruker AXS, Inc. of Madison, Wis., using CuKα radiation. The tube power was set to either 40 kV and 40 mA or 40 kV and 30 mA. […]

HCV infection = test: Human clinical trials in HCV-infected patients; assay type: in vivo
HCV NS3 serine protease = HCV NS3 serine protease (Hepatitis C virus genotype 1a, UniProt P27958); conditions: cited from earlier work
HCV NS3 serine protease, sequence (P27958 1658-1711): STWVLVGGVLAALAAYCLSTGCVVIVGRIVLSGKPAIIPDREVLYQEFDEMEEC
HCV NS3 serine protease, sequence (P27958 1027-1657): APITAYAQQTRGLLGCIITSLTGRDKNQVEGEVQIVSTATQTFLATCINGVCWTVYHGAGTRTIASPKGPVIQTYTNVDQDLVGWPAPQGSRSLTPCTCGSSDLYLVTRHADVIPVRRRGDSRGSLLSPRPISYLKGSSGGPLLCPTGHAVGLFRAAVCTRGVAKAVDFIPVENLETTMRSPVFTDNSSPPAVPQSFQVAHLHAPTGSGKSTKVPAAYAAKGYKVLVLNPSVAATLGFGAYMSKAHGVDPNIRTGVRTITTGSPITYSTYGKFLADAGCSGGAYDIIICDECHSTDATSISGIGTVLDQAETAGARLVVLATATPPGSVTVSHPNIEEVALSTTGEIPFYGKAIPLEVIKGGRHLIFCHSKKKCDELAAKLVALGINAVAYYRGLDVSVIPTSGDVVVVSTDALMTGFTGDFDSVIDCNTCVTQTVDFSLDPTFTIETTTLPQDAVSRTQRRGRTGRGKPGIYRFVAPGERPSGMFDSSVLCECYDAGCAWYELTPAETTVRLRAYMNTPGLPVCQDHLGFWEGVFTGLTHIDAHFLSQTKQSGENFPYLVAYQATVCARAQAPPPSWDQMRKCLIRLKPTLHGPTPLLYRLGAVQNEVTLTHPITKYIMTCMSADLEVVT

| Structure (SMILES) | solubility ([1]; Capmul MCM (non-aqueous excipient), oil or lipid, excipient Capmul MCM, read-out: Solubility in Capmul MCM) [mg/mL] | solubility ([1]; Capmul PG8 (non-aqueous excipient), oil or lipid, excipient Capmul PG8, read-out: Solubility in Capmul PG8) [mg/mL] | solubility ([1]; Labrasol (non-aqueous excipient), oil or lipid, excipient Labrasol, read-out: Solubility in Labrasol) [mg/mL] | solubility ([1]; PEG 400 (non-aqueous excipient), organic solvent or mixture, excipient PEG 400, read-out: Solubility in PEG 400) [mg/mL] | solubility ([1]; Propylene Glycol (non-aqueous excipient), organic solvent or mixture, excipient Propylene Glycol, read-out: Solubility in Propylene Glycol) [mg/mL] | Solubility in Ethanol [1] [mg/mL] | Solubility in Transcutol P [1] [mg/mL] | Form stability (change in XRPD pattern of remaining solid) ([2]; listed as crystalline sodium salt form of Compound (1)) | Effectiveness in treating HCV-infected patients (HCV infection) | Inhibitory activity against HCV NS3 serine protease (HCV NS3 serine protease) | Solubility in Capmul MCM ([1]; excipient Capmul MCM) [mg/mL] | Solubility in Capmul PG8 ([1]; excipient Capmul PG8) [mg/mL] | Solubility in Labrasol ([1]; excipient Labrasol) [mg/mL] | Solubility in PEG 400 ([1]; excipient PEG 400) [mg/mL] | Form stability (change in XRPD pattern of remaining solid) ([2]; listed as Type A form of Compound (1)) |
| --- | --- | --- | --- | --- | --- | --- | --- | --- | --- | --- | --- | --- | --- | --- | --- |
| C=C[C@@H]1C[C@]1(NC(=O)[C@@H]1C[C@@H](Oc2cc(-c3csc(NC(=O)C(C)C)n3)nc3c(Br)c(OC)ccc23)CN1C(=O)[C@@H](NC(=O)OC1CCCC1)C(C)(C)C)C(=O)O [Compound (1) Na salt] | 262.5 ± 2.6 | < 169 | 175 ± 11.8 | 234 ± 34 | > 468 | 187.0 ± 23.9 | 430.6 ± 14.7 | no change in the XRPD pattern | demonstrated effectiveness | – | – | – | – | – | – |
| C=C[C@@H]1C[C@]1(NC(=O)[C@@H]1C[C@@H](Oc2cc(-c3csc(NC(=O)C(C)C)n3)nc3c(Br)c(OC)ccc23)CN1C(=O)[C@@H](NC(=O)OC1CCCC1)C(C)(C)C)C(=O)O [Compound (1)] | – | – | – | – | – | – | – | – | – | selective and potent inhibitor | – | – | – | – | – |
| C=C[C@@H]1C[C@]1(NC(=O)[C@@H]1C[C@@H](Oc2cc(-c3csc(NC(=O)C(C)C)n3)nc3c(Br)c(OC)ccc23)CN1C(=O)[C@@H](NC(=O)OC1CCCC1)C(C)(C)C)C(=O)O [Type A of Compound (1)] | – | – | – | – | – | 0.9 ± 0.1 (≈ 1.03 mM) | 24.3 ± 0.3 (≈ 27.9 mM) | – | – | – | 220.6 ± 7.4 (≈ 254 mM) | 172.6 ± 8.3 (≈ 198 mM) | 146.7 ± 5.1 (≈ 169 mM) | 136.8 ± 3.2 (≈ 157 mM) | clear form change |
